We go through two compounds from ChEMBL document CHEMBL4610060, “Orally bioavailable amine-linked macrocyclic inhibitors of factor XIa” (Bioorg Med Chem Lett, 2020).

Data set [1] has as its system Plasma. The data set can be described thus: Anticoagulant activity in human plasma assessed as EC1.5 of activated partial thromboplastin time by coagulometric analysis. Format: functional.
Data set [2] has as its target Coagulation factor XI (Homo sapiens, UniProt P03951). The data set can be described thus: Inhibition of recombinant human activated coagulation factor XI using pyro-Glu-Pro-Arg-pNA as substrate by spectrophotometry.
Data set [3] in a line: Permeability across basolateral to apical side in human Caco2 cells. Format: ADME, cell-based. Particulars: Caco-2, read-out: permeability. For orientation: Caco-2 monolayers are a common model of the intestinal barrier.
The nature of data set [4]: Permeability across apical to basolateral side in human Caco2 cells. Particulars: Caco-2, read-out: permeability. Format: ADME, cell-based.
The nature of data set [5]: Metabolic stability in rat liver microsomes assessed as half life. Format: ADME, Microsome. (In general: Liver microsomes are a subcellular fraction often used to study metabolism.)
Data set [6] in a line: AUC in Sprague-Dawley rat at 1.04 mg/kg, po measured upto 24 hrs by LC-MS/MS analysis. Format: ADME, organism-based. On the set-up: time < 24 hr, dose 1.04 mg/kg, route oral. Particulars: in vivo.
Data set [7] is described as follows: Half life in Sprague-Dawley rat at 0.52 mg/kg, iv or 1.04 mg/kg, po measured upto 24 hrs by LC-MS/MS analysis. Format: ADME, organism-based. Particulars: in vivo.
Data set [8] in a line: Oral bioavailability in Sprague-Dawley rat at 1.04 mg/kg measured upto 24 hrs by LC-MS/MS analysis. Format: ADME, organism-based. Particulars: in vivo.
Data set [9] in a line: Clearance in Sprague-Dawley rat at 0.52 mg/kg, iv or 1.04 mg/kg, po measured upto 24 hrs by LC-MS/MS analysis. Format: ADME, organism-based. Particulars: in vivo.
The nature of data set [10]: Metabolic stability in human liver microsomes assessed as half life. Format: ADME, Microsome.
Data set [11] in a line: Volume of distribution at steady state in Sprague-Dawley rat at 0.52 mg/kg, iv or 1.04 mg/kg, po measured upto 24 hrs by LC-MS/MS analysis. Format: ADME, organism-based. Particulars: in vivo, read-out: Vdss.
Data set [12] is described as follows: Clearance in Sprague-Dawley rat at 0.49 mg/kg, iv or 0.98 mg/kg, po measured upto 24 hrs by LC-MS/MS analysis. Format: ADME, organism-based. Particulars: in vivo.
The nature of data set [13]: Oral bioavailability in Sprague-Dawley rat at 0.98 mg/kg measured upto 24 hrs by LC-MS/MS analysis. Format: ADME, organism-based. Particulars: in vivo.
Data set [14] can be described thus: Half life in Sprague-Dawley rat at 0.49 mg/kg, iv or 0.98 mg/kg, po measured upto 24 hrs by LC-MS/MS analysis. Format: ADME, organism-based. Particulars: in vivo.
Data set [15] is described as follows: Volume of distribution at steady state in Sprague-Dawley rat at 0.49 mg/kg, iv or 0.98 mg/kg, po measured upto 24 hrs by LC-MS/MS analysis. Format: ADME, organism-based. Particulars: in vivo, read-out: Vdss.
Data set [16] can be described thus: AUC in Sprague-Dawley rat at 0.98 mg/kg, po measured upto 24 hrs by LC-MS/MS analysis. Format: ADME, organism-based. On the set-up: time < 24 hr, dose 0.98 mg/kg, route oral. Particulars: in vivo.
Data set [17] is described as follows: Protein binding in rat assessed as unbound fraction. Format: ADME.

Sequence of Coagulation factor XI (P03951 19-387 limits assumed): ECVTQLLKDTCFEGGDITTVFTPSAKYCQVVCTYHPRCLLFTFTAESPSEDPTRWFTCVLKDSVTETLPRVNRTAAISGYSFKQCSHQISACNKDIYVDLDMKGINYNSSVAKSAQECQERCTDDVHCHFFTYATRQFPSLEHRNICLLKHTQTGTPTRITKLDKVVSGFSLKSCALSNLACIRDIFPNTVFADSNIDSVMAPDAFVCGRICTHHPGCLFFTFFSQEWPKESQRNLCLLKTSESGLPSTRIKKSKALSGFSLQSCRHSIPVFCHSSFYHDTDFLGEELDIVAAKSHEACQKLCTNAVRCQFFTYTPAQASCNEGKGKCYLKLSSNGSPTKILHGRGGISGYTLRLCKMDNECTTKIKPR
Sequence of Coagulation factor XI (P03951 388-625 limits assumed): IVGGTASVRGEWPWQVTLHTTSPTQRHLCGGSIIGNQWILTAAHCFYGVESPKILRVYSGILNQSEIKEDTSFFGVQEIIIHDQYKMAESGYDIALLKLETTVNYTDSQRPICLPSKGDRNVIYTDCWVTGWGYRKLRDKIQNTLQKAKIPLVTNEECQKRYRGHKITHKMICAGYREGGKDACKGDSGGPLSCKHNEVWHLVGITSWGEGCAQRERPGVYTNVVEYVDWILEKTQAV

As a reminder, the Ki is a measure of affinity in units of concentration, obtained from inhibition or displacement. The term half-life denotes the time in which the quantity being followed falls by half. By AUC is commonly meant concentration integrated over time. A higher AUC goes with more exposure. As usually defined, the bioavailability is the share of a dose that reaches the circulation, judged against a reference dose that is usually intravenous. As to `COC(=O)Nc1ccc2c(c1)N[C@@H](C(=O)OC)CCCC[C@H](NC(=O)/C=C/c1cc(Cl)ccc1-n1cnnn1)c1cc-2ccn1`, the EC1.5 in data set [1] is 3.4 µM. Besides, the Ki in [2] was 3.4 nM. Further, in [3], the Papp B→A was 21.3 ×10⁻⁶ cm/s. Further, the Papp A→B in data set [4] is under 1.5 ×10⁻⁶ cm/s. Further, the half-life is 1.45 h in [5], 1.2 h in data set [7] and 1.85 h in data set [10]. In [6], the AUC at 24 h was 0.889 µM·h. The compound also gave a bioavailability in [8] of 23%. In data set [9], the clearance was found to be 5.2 mL/min/kg. Also, the Vd in data set [11] was determined as 0.53 L/kg.
A word on the fraction unbound: it is free concentration divided by total concentration. On to `COC(=O)Nc1ccc2c(c1)N[C@@H](C(=O)O)CCCC[C@H](NC(=O)/C=C/c1cc(Cl)ccc1-n1cnnn1)c1nc-2c[nH]1`, for which the clearance in data set [12] came out at 7.7 mL/min/kg. This compound also returned a bioavailability in data set [13] of 1%. For the same compound, the EC1.5 in data set [1] worked out at 0.87 µM. Besides, the Ki in data set [2] amounted to 0.67 nM. In addition, in data set [3], the Papp B→A is under 1.5 ×10⁻⁶ cm/s. The Papp A→B in data set [4] is under 1.5 ×10⁻⁶ cm/s. For the same compound, the figures for the half-life in [14], in [5] and in data set [10] were 1 h, 1.25 h and 1.17 h, respectively. The Vd in data set [15] came out at 0.33 L/kg. Besides, in [16], the AUC at 24 h was 0.014 µM·h. Also, in [17], the fraction unbound came to 0.014.
